The source of these data is patent publication US9187472B2 (AbbVie Inc., priority 2012, dated 2015).

Where only a bound is given, the exact number is not on record here.

In this experiment the test system is PC3 cells. Briefly: NAMPT Cell Proliferation Assay. The class given is cell-based. As to conditions: Homo sapiens, PC-3, 120 h, 5 days incubation, cell viability by Cell Titer Glo. The method, boiled down: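 Seed PC3 at 500 cells/well (RPMI, 10% HI-FBS), attach overnight; add compound, 10-fold series 10 μM → 1×10^−5 μM; incubate 5 d, 37° C/5% CO2; luminescent viability readout; fit % inhibition sigmoidally for IC50.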
`O=C(NCc1ccn2ccnc2c1)c1ccc(NC(=O)C(F)(F)c2ccccc2)cc1` [Example 895, 4-{[difluoro(phenyl)acetyl]amino}-N-(imidazo[1,2-a]pyridin-7-ylmethyl)benzamide]: the half-maximal inhibitory concentration (IC50) worked out at 730 nM.
With `O=C(NCc1cn2ccnc2cn1)c1ccc(C2CCN(C(=O)c3ccc(F)cc3)CC2)s1` [Example 828, 5-[1-(4-fluorobenzoyl)piperidin-4-yl]-N-(imidazo[1,2-a]pyrazin-6-ylmethyl)thiophene-2-carboxamide], half-maximal inhibition (IC50) required 6.44 nM.
As for `O=C(NCc1ccn2ccnc2c1)c1ccc(NC(=O)c2ccccc2)cc1` [Example 869, 4-(benzoylamino)-N-(imidazo[1,2-a]pyridin-7-ylmethyl)benzamide], the IC50 was 6870 nM.
Regarding `CC(C)(C(=O)N1CCC(c2ccc(C(=O)NCc3ccn4ccnc4c3)s2)CC1)N1CCNCC1` [Example 879, N-(imidazo[1,2-a]pyridin-7-ylmethyl)-5-{1-[2-methyl-2-(piperazin-1-yl)propanoyl]piperidin-4-yl}thiophene-2-carboxamide], 63.3 nM corresponded to half-maximal inhibition (IC50).
The same measure for `O=C(NCc1ccn2ccnc2c1)c1ccc(C2CCN(C(=O)c3cc(C4CC4)on3)CC2)cc1` [Example 973, 4-{1-[(5-cyclopropyl-1,2-oxazol-3-yl)carbonyl]piperidin-4-yl}-N-(imidazo[1,2-a]pyridin-7-ylmethyl)benzamide]: 21.8 nM; for `O=C(NCc1ccn2ccnc2c1)c1ccc(NC(=O)c2ccccc2F)cc1` [Example 874, 2-fluoro-N-{4-[(imidazo[1,2-a]pyridin-7-ylmethyl)carbamoyl]phenyl}benzamide]: 6650 nM; for `N#Cc1ccccc1C(=O)N1CCC(c2ccc(C(=O)NCc3ccc4ncnn4c3)s2)CC1` [Example 852, 5-[1-(2-cyanobenzoyl)piperidin-4-yl]-N-([1,2,4]triazolo[1,5-a]pyridin-6-ylmethyl)thiophene-2-carboxamide]: 8.32 nM.
Take `CC(C)(CN)Cn1cc(-c2ccc(C(=O)NCc3ccn4ccnc4c3)s2)cn1` [Example 1083, 5-[1-(3-amino-2,2-dimethylpropyl)-1H-pyrazol-4-yl]-N-(imidazo[1,2-a]pyridin-7-ylmethyl)thiophene-2-carboxamide]: the half-maximal inhibitory concentration (IC50) stood at 0.92 nM.
The same measure for `O=C(NCc1ccn2ccnc2c1)Nc1ccc(C2CCN(C(=O)c3onc4c3CCCC4)CC2)cc1` [Example 1015, 1-(imidazo[1,2-a]pyridin-7-ylmethyl)-3-{4-[1-(4,5,6,7-tetrahydro-2,1-benzoxazol-3-ylcarbonyl)piperidin-4-yl]phenyl}urea]: 1.68 nM.
In turn, `O=C(NCc1ccn2ccnc2c1)Nc1ccc(C2CCN(C(=O)c3cccc4c3CCC4=O)CC2)cc1` [Example 953, 1-(imidazo[1,2-a]pyridin-7-ylmethyl)-3-(4-{1-[(1-oxo-2,3-dihydro-1H-inden-4-yl)carbonyl]piperidin-4-yl}phenyl)urea] came in with an IC50 of 2.35 nM.
The compound `Cn1c(C(=O)N2CCC(c3ccc(C(=O)NCc4ccn5ccnc5c4)cc3)CC2)cc2occc21` [Example 995, N-(imidazo[1,2-a]pyridin-7-ylmethyl)-4-{1-[(4-methyl-4H-furo[3,2-b]pyrrol-5-yl)carbonyl]piperidin-4-yl}benzamide] gave an IC50 of 10.8 nM.
`COc1ccccc1CC(=O)N1CCC(c2ccc(C(=O)NCc3ccn4ccnc4c3)cc2)CC1` [Example 921, N-(imidazo[1,2-a]pyridin-7-ylmethyl)-4-{1-[(2-methoxyphenyl)acetyl]piperidin-4-yl}benzamide] displayed a concentration for half-maximal inhibition (IC50) of 157 nM.
As to `N#Cc1ccc(F)c(C(=O)N2CCC(c3ccc(NC(=O)NCc4ccn5ccnc5c4)cc3)CC2)c1` [Example 1033, 1-{4-[1-(5-cyano-2-fluorobenzoyl)piperidin-4-yl]phenyl}-3-(imidazo[1,2-a]pyridin-7-ylmethyl)urea], 1.97 nM corresponded to half-maximal inhibition (IC50).
For `CC(C)n1ccc(CC(=O)N2CCC(c3ccc(C(=O)NCc4ccn5ccnc5c4)cc3)CC2)n1` [Example 1097, N-(imidazo[1,2-a]pyridin-7-ylmethyl)-4-(1-{[1-(propan-2-yl)-1H-pyrazol-3-yl]acetyl}piperidin-4-yl)benzamide], the half-maximal inhibitory concentration (IC50) worked out at 64.7 nM.
The same measure for `Cn1ncc2c(C(=O)N3CCC(c4ccc(NC(=O)NCc5ccn6ccnc6c5)cc4)CC3)cccc21` [Example 1152, 1-(imidazo[1,2-a]pyridin-7-ylmethyl)-3-(4-{1-[(1-methyl-1H-indazol-4-yl)carbonyl]piperidin-4-yl}phenyl)urea]: 3.08 nM; for `O=C(NCc1ccn2ccnc2c1)c1ccc(C2CCN(C(=O)c3onc4c3CCCC4)CC2)cc1` [Example 962, N-(imidazo[1,2-a]pyridin-7-ylmethyl)-4-[1-(4,5,6,7-tetrahydro-2,1-benzoxazol-3-ylcarbonyl)piperidin-4-yl]benzamide]: 16.1 nM.
`CC(=O)c1ccccc1C(=O)N1CCC(c2ccc(C(=O)NCc3ccn4ccnc4c3)cc2)CC1` [Example 924, 4-[1-(2-acetylbenzoyl)piperidin-4-yl]-N-(imidazo[1,2-a]pyridin-7-ylmethyl)benzamide] gave a concentration for half-maximal inhibition (IC50) of 18 nM.
`O=C(NCc1ccn2ccnc2c1)c1ccc(C2CCN(C(=O)N3CCCCC3)CC2)cc1` [Example 1068, N-(imidazo[1,2-a]pyridin-7-ylmethyl)-4-[1-(piperidin-1-ylcarbonyl)piperidin-4-yl]benzamide] had a half-inhibitory concentration (IC50) of 5.77 nM.
`CC[C@H](C)C(=O)N1CCC(c2ccc(C(=O)NCc3ccc4ncnn4c3)s2)CC1` [Example 844, 5-{1-[(2S)-2-methylbutanoyl]piperidin-4-yl}-N-([1,2,4]triazolo[1,5-a]pyridin-6-ylmethyl)thiophene-2-carboxamide] yielded an IC50 of 14.8 nM.
`O=C(NCc1ccn2ccnc2c1)c1ccc(C2CCN(C(=O)c3cnc4c(c3)CCCO4)CC2)cc1` [Example 987, 4-[1-(3,4-dihydro-2H-pyrano[2,3-b]pyridin-6-ylcarbonyl)piperidin-4-yl]-N-(imidazo[1,2-a]pyridin-7-ylmethyl)benzamide] came in with an IC50 of 543 nM.
The same measure for `O=C(NCc1ccn2ccnc2c1)c1ccc(C2CCN(C(=O)c3ccc4c(c3)CCCO4)CC2)cc1` [Example 970, 4-[1-(3,4-dihydro-2H-chromen-6-ylcarbonyl)piperidin-4-yl]-N-(imidazo[1,2-a]pyridin-7-ylmethyl)benzamide]: 10.9 nM.
The same measure for `O=C(NCc1ccn2ccnc2c1)c1ccc(C(=O)NCc2cc(F)ccc2F)cc1` [Example 909, N-(2,5-difluorobenzyl)-N′-(imidazo[1,2-a]pyridin-7-ylmethyl)benzene-1,4-dicarboxamide]: 7210 nM.
The same measure for `O=C(NCc1cn2ccnc2cn1)c1ccc(-c2cnn(CCN3CCNCC3)c2)s1` [Example 894, N-(imidazo[1,2-a]pyrazin-6-ylmethyl)-5-{1-[2-(piperazin-1-yl)ethyl]-1H-pyrazol-4-yl}thiophene-2-carboxamide]: 202 nM.
As for `O=C(Cc1ccn2ccnc2c1)Nc1ccc(C2CCN(C(=O)c3ccc(F)cc3F)CC2)cc1` [Example 902, N-{4-[1-(2,4-difluorobenzoyl)piperidin-4-yl]phenyl}-2-(imidazo[1,2-a]pyridin-7-yl)acetamide], the 50% inhibitory concentration (IC50) amounted to 10.8 nM.
`CN1CCC(C(=O)N2CCC(c3ccc(C(=O)NCc4ccc5ncnn5c4)s3)CC2)CC1` [Example 851, 5-{1-[(1-methylpiperidin-4-yl)carbonyl]piperidin-4-yl}-N-([1,2,4]triazolo[1,5-a]pyridin-6-ylmethyl)thiophene-2-carboxamide] showed an IC50 of 133 nM.
The same measure for `CC(C)=CC(=O)N1CCC(c2ccc(NC(=O)NCc3ccn4ccnc4c3)cc2)CC1` [Example 939, 1-(imidazo[1,2-a]pyridin-7-ylmethyl)-3-{4-[1-(3-methylbut-2-enoyl)piperidin-4-yl]phenyl}urea]: over 10000 nM.
For `CC(C)S(=O)(=O)N1CCC(c2ccc(C(=O)NCc3ccc4ncnn4c3)s2)CC1` [Example 859, 5-[1-(propan-2-ylsulfonyl)piperidin-4-yl]-N-([1,2,4]triazolo[1,5-a]pyridin-6-ylmethyl)thiophene-2-carboxamide], the IC50 amounted to 10.4 nM.
The same measure for `CC(C)CC(=O)N1CCC(c2ccc(C(=O)NCc3ccc4ncnn4c3)s2)CC1` [Example 843, 5-[1-(3-methylbutanoyl)piperidin-4-yl]-N-([1,2,4]triazolo[1,5-a]pyridin-6-ylmethyl)thiophene-2-carboxamide]: 17.2 nM; for `O=C(NCc1ccn2ccnc2c1)Nc1ccc(C2CCN(C(=O)c3cc(Cl)ncc3F)CC2)cc1` [Example 1016, 1-(4-{1-[(2-chloro-5-fluoropyridin-4-yl)carbonyl]piperidin-4-yl}phenyl)-3-(imidazo[1,2-a]pyridin-7-ylmethyl)urea]: 2.19 nM.
The same measure for `Cn1ncc2ccc(C(=O)N3CCC(c4ccc(NC(=O)NCc5ccn6ccnc6c5)cc4)CC3)cc21` [Example 1123, 1-(imidazo[1,2-a]pyridin-7-ylmethyl)-3-(4-{1-[(1-methyl-1H-indazol-6-yl)carbonyl]piperidin-4-yl}phenyl)urea]: 7.11 nM.
The same measure for `CC(C)(C)CC(=O)N1CCC(c2ccc(NC(=O)NCc3ccn4ccnc4c3)c(F)c2)CC1` [Example 1071, 1-{4-[1-(3,3-dimethylbutanoyl)piperidin-4-yl]-2-fluorophenyl}-3-(imidazo[1,2-a]pyridin-7-ylmethyl)urea]: 0.473 nM; for `O=C(NCc1ccn2ccnc2c1)Nc1ccc(C2CCN(C(=O)c3cnc4ccccc4n3)CC2)cc1` [Example 1038, 1-(imidazo[1,2-a]pyridin-7-ylmethyl)-3-{4-[1-(quinoxalin-2-ylcarbonyl)piperidin-4-yl]phenyl}urea]: 7.84 nM.
Turning to `CC1CC(C#N)(C(=O)N2CCC(c3ccc(NC(=O)NCc4ccn5ccnc5c4)cc3)CC2)C1` (stereo not drawn) [Example 1127, 1-(4-{1-[(1-cyano-3-methylcyclobutyl)carbonyl]piperidin-4-yl}phenyl)-3-(imidazo[1,2-a]pyridin-7-ylmethyl)urea], the IC50 is 2.99 nM.
